The term Papp denotes a coefficient for how fast a substance crosses the barrier. Lower therefore signals poor permeation.

A short description of the data set: in vitro. The following applies: PAMPA. (PAMPA measures passive passage across an artificial lipid membrane.)

Description: Permeability of compound at 12.5 uM incubated for 4 hrs by GIT PAMPA assay

For the compound `CCn1cnc2c(NCc3ccc(-c4ccoc4)nc3)nc(-c3cccnc3)nc21`, the Papp at 4 h, 12.5 µM was found to be 72.4 ×10⁻⁶ cm/s.

The values above are taken from ChEMBL document CHEMBL5537138, “Identification of a novel potent CDK inhibitor degrading cyclinK with a superb activity to reverse trastuzumab-resistance in HER2-positive breast cancer in vivo” (Eur J Med Chem, 2024).
